From patent US20160024597A1, “miRNAs AS THERAPEUTIC TARGETS IN CANCER” (The Research Foundation For The State University Of New York, priority 2009, published 2016)

Tests used:
[1] = system: CD133+hi/CD44+hi colon cancer stem-like cells; assay: 5-FU cell death assay, FITC Annexin V and PI flow cytometry; format: cell-based; details: FACS-sorted CD133+hi/CD44+hi cells, lethal dose of 5-FU (100 μM) for 48 h
Description: HCT 116 (wt-p53) cells were sorted with multiparametric flow cytometry with BD FACS Aria cell sorter (Becton Dickinson, CA) at sterile conditions. Cells were prepared as described above and labeled with one or several markers conjugated anti-human CD133-PE (clone 105902; R&D Systems, MN); CD44-FITC (clone F10-44-2, R&D Systems, MN). Antibodies were diluted in buffer containing 5% BSA, 1 mM EDTA and 15-20% blocking reagent (Miltenyi Biotec, CA) to inhibit unspecific binding to non-target cells. After 15 min incubation at 4° C., stained cells were washed, resuspended in 500 μl of MACS buffer and sorted.
(§1) Colon cancer stem-like cells were transfected with 100 nM of LNA anti-miR-140 using Lipofectamine 2000 after FACS-sorting. […] The dead cells were determined by the fluorescein isothiocyanate (FITC) Annexin V and PI detection kit (BD Biosciences, Pharmingen, San Diego, Calif., USA). Briefly, cells were harvested and resuspended in 1× Annexin V binding and stained with Annexin V (5 μl) and PI (5 μl) for 15 min at room temperature in the dark. After additional 400 μl of binding buffer, cells were analyzed by flow cytometry. […]

[2] = system: nonsorted control HCT 116 (wt-p53) cells; assay: as above; format: cell-based, human; details: lethal dose of 5-FU (100 μM) for 48 h
Description: as §1

[3] = system: MG63 cells (mut-p53); assay: WST-1 cell proliferation assay after miR-140 transfection; format: cell-based; details: 100 nM transfected, day 5, n=6
Description: (§2) Cells were plated in six-well plates at a density of 2×10^5 cells/well. The next day, cells were transfected with 100 nM of miR-140 precursor or non specific miR control (Ambion, Inc.) with Oligofectamine (Invitrogen Inc.) based on the manufacturer's instructions. Positive control siRNA specific against HDAC4 (ON-TARGET plus SMARTpool L-003497-00-0010, human HDAC4, NM 006037) was purchased from Dharmacon and transfected with Oligofectamine according to the manufacturer's protocols at a final concentration of 100 nM.
(§3) Cells were plated in 96-well plates with 6 repeats at 2,000 cells/well after transfection with miR-140 or miR control. Cells were cultured for 24, 48, 72, 96 and 120 h. The absorbance at 450 and 630 nm was measured after incubation with 10 μl of WST-1 for 1 h.

[4] = system: U-2 OS cells (wt-p53); assay: as above; format: cell-based; details: U-2 OS (wt-p53), 100 nM transfected, day 5, n=6
Description: as §2, §3

[5] = system: HCT 116 (null-p53) cells; assay: as above; format: cell-based, human; details: 100 nM transfected, day 5, n=6
Description: as §2, §3

[6] = system: HCT 116 (wt-p53) cells; assay: as above; format: cell-based, human; details: 100 nM transfected, day 5, n=6
Description: as §2, §3

[7] = system: MG63 cells (mut-p53); assay: Cell cycle analysis by flow cytometry; format: cell-based; details: 100 nM, 36 h after transfection
Description: (§4) Cells were transfected with miR-140 and miR control described as above. At 36 h after transfection, cells were harvested and resuspended at 0.5-1×10^5 cells/ml in modified Krishan buffer (He, 2007; Tarasov, 2007), containing 0.1% sodium citrate and 0.3% NP-40 and kept at 4° C. Before being analyzed by flow cytometry, cells were treated with 0.02 mg/ml RNase H and stained with 0.05 mg/ml propidium iodide (Sigma).

[8] = system: U-2 OS cells (wt-p53); assay: Cell cycle analysis by flow cytometry; format: cell-based; details: U-2 OS (wt-p53), 100 nM, 36 h after transfection, vs miR control
Description: as §4

[9] = system: HCT 116 (null-p53) cells; assay: Cell cycle analysis by flow cytometry; format: cell-based, human; details: 100 nM, 36 h after transfection
Description: as §4

[10] = system: HCT 116 (wt-p53) cells; assay: Cell cycle analysis by flow cytometry; format: cell-based, human; details: 100 nM, 36 h after transfection, vs miR control
Description: as §4

[11] = system: HDAC4 mRNA; assay: HDAC4 mRNA expression by real time qRT-PCR; format: cell-based, human; details: U-2 OS (wt-p53) and HCT 116 (wt-p53) cells, 100 nM, 24 hrs, GAPDH normalized
Description: as §2
Total RNA, including miRNAs, was isolated from cell lines or clinical specimens by using TRIzol reagent (Invitrogen, Inc.) according to the manufacturer's instructions to determine whether the cells were transfected with miR control, miR-140 or siHDAC4 at a final concentration of 100 nM for 24 hrs before RNA isolation.
cDNA was synthesized with the High Capacity cDNA synthesis kit (Applied Biosystems) using 2 μg of total RNA as the template and 10× random primers. Real-time qPCR analysis was done on the experimental mRNAs. The PCR primers and probes for HDAC4, and the internal control gene GAPDH were purchased from Applied Biosystems. qRT-PCR was done on an ABI 7500HT instrument under the following conditions: 50° C., 2 min for one cycle; 95° C., 10 min; 95° C., 15 s; 60° C., 1 min for 40 cycles (n=3).

[12] = system: HDAC4 protein; assay: HDAC4 protein expression by Western immunoblot after transfection; format: cell-based, human; details: U-2 OS (wt-p53) and HCT 116 (wt-p53) cells, 100 nM, 48 h after transfection
Description: as §2
Forty-eight hours after transfection with miR-140 or miR control, cells were harvested and lysed in 1×RIPA buffer (Sigma) supplied with 100 uM PMSF (sigma) and proteinase inhibitor cocktail (Sigma). Equal amounts of protein were resolved by a 8% SDS-PAGE gels using the method of Laemmli (Laemmli, 1970), and transferred to polyvinylidene fluoride membranes (BIO-RAD Laboratories). The membranes were then blocked by 5% nonfat milk in TBST (Tris-buffered saline and 1% Tween-20) at room temperature for 1 h. The primary antibodies used for the analysis included goat anti-HDAC4 polyclonal Ab (1:1000, N-18), mouse anti-p53 mAb (1:1000, DO-1), mouse anti-p21 mAb(1:1000, F-5), mouse anti-tubulin mAb (1:1000, TU-02), all from Santa Cruz Biotechnology. […]

[13] = system: p53; assay: p53 expression by Western immunoblot; format: cell-based; details: U-2 OS (wt-p53) and HCT 116 (wt-p53) cells, 48 h after transfection
Description: (§5) Forty-eight hours after transfection with miR-140 or miR control, cells were harvested and lysed in 1×RIPA buffer (Sigma) supplied with 100 uM PMSF (sigma) and proteinase inhibitor cocktail (Sigma). Equal amounts of protein were resolved by a 8% SDS-PAGE gels using the method of Laemmli (Laemmli, 1970), and transferred to polyvinylidene fluoride membranes (BIO-RAD Laboratories). The membranes were then blocked by 5% nonfat milk in TBST (Tris-buffered saline and 1% Tween-20) at room temperature for 1 h. The primary antibodies used for the analysis included goat anti-HDAC4 polyclonal Ab (1:1000, N-18), mouse anti-p53 mAb (1:1000, DO-1), mouse anti-p21 mAb(1:1000, F-5), mouse anti-tubulin mAb (1:1000, TU-02), all from Santa Cruz Biotechnology. Horseradish peroxidase-conjugated antibodies against mouse or goat (1:1000, Santa Cruz Biotechnology) were used as the secondary antibodies. Protein bands were visualized with a chemiluminescence detection system using Super Signal substrate (Pierce).

[14] = system: p21; assay: p21 expression by Western immunoblot; format: cell-based; details: U-2 OS (wt-p53) and HCT 116 (wt-p53) cells, 48 h after transfection
Description: as §5

[15] = system: HCT 116 (wt-p53) cells; assay: Chemosensitivity assay to methotrexate (WST-1); format: cell-based, human; details: 100 nM transfected, methotrexate 10-1000 nM for 72 h, vs miR control
Description: U-2 OS and HCT 116 (wt-p53) cells were replated in 96-well plates at 2×10^3 cells/well in triplicate after transfected with miR-140, miR control, or siRNA against HDAC4 in 100 μl of medium. Twenty-four hours later, methotrexate (ranged from 10-1000 nM) was added and incubated for 72 h. Ten μl of WST-1 (Roche Applied Science) was added to each well. After 1 h incubation, absorbance was measured at 450 and 630 nm respectively. Non-specific miRNA was used as the negative control.

[16] = system: HCT 116 (wt-p53) cells; assay: Chemosensitivity assay to 5-fluorouracil (WST-1); format: cell-based, human; details: 100 nM transfected, 5-FU 2 to 100 μM for 72 h, vs miR control
Description: HCT 116 (wt-p53) cells were replated in 96-well plates at 2×10^3 cells per well in triplicate after transfected with miR-140, miR control or siRNA against HDAC4 in 100 μl of medium. After 24 h, 5-FU (ranged from 2 to 100 μM) was added and incubated for 72 h. WST-1 (10 μl) was added to each well. After 1 h incubation, absorbance was measured. Nonspecific miR was used as the negative control.

Compound: O=c1[nH]cc(F)c(=O)[nH]1 [5-FU, 5-fluorouracil]
- cell death [1]: about 20%
- cell death [2]: > 80%

Compound: miR-140: miR-140 precursor (Ambion) transfected at 100 nM to overexpress human miR-140 (SEQ ID NO:1/2) (chain 1 AGUGGUUUUACCUAUGGUAG; chain 2 CAGUGGUUUUACCCUAUGGUAG; listed as RNA, chemistry not given here; listed as Homo sapiens)
- suppression of cellular proliferation [3]: 31.3±4.96%
- suppression of cellular proliferation [4]: 64.05±4.01%
- suppression of cellular proliferation [5]: 22.42±1.88%
- suppression of cellular proliferation [6]: 81.4±3.75%
- G1 and G2 arrest [7]: has not been observed
- G1 arrest [8]: 1.76 fold
- G2 arrest [8]: 0.92 fold
- G1 and G2 arrest [9]: has not been observed
- G1 arrest [10]: 3.33 fold
- G2 arrest [10]: 2.54 fold
- HDAC4 mRNA expression [11]: no change
- HDAC4 protein expression [12]: clearly decreased
- p53 protein expression [13]: increased
- p21 protein expression [14]: increased
- chemosensitivity to methotrexate of transfected cells [15]: more resistant
- chemosensitivity to 5-fluorouracil of transfected cells [16]: more resistant
